Measurements: patent US10189824B2, “Pyrimidine-diamine dual HSP90/TRAP1 inhibitors” (CalAsia Pharmaceuticals, Inc., priority 2014, dated 2019)

Columns and labels:
Assay type in all cases: cell-based
[1] = test system: U251MG cell mitochondrial respiration; assay: Mitochondrial respiratory function assay (OCR, Seahorse); details: U251MG cells, stressed conditions (oligomycin, FCCP, rotenone); within minutes
Protocol: The effect of test compounds on the mitochondrial oxygen consumption rate (OCR) was determined in real time using a Seahorse Xr24 extracellular flux analyzer (Seahorse Bioscience). The cell-based assay was performed essentially as recommended by the manufacturer. Briefly, cells were seeded in a 24 well XF plate using an appropriate cell density. “Flux Pak” cartridge (containing the O2 and H^+ sensitive fluorophores) were hydrated in the XF calibrant solution overnight just prior to running the assay. On the following day, the cells were replenished with XF assay media (unbuffered DMEM containing 10 mM glucose and 2 mM pyruvate) and placed in a CO2 free 37° C. incubator for an additional one hour. Basal OCR was measured before the wells were injected with test compounds. Subsequently, mitochondrial bioenergetics stress was determined by treating the cells sequentially with 0.125 mg/ml Oligomycin (ATP synthase inhibitor), […] FCCP (uncoupler) and […] rotenone (Complex I inhibitor) while continuously measuring the OCR.

[2] = test system: Hsp70 levels in U251MG cells; assay: Biomarker quantitation by ELISA, Hsp70; details: 15.6 uM, 48 h
Protocol: U251 cells were plated in 6 well format culture dishes overnight at 37° C. with 5% CO2 and then treated with increasing concentrations of test compounds for 48 h at 37° C. with 5% CO2. Quantification of total Akt1, EGFR, and Hsp70 in cell lysates was accomplished using ELISA kits (R&D Systems) according to the manufacturer's recommendations and utilizing a Synergy HT micro-titer plate reader (Biotek). Cell lysates were prepared as recommended in the kit procedure. Protein concentrations of lysates clarified using centrifugation were determined using a Bradford assay (Thermo Scientific), and the values were used to normalize the biomarker values.

[3] = test system: Hsp90 client proteins (Akt1, ERK1) in MDA-MB-231 cell line; assay: Cellular biomarker assays (Akt1, ERK1 ELISA) in MDA-MB-231; details: 48 hours
Protocol: Cellular biomarker assays: Cells were cultured in culture medium (RPMI-glutamax, 10% FCS, 100 units/ml penicillin, and 100 μg/ml streptomycin). Cells were passaged after lifting using 0.25% trypsin/EDTA, and 3×10^5 cells were seeded in each well of six well plates (total volume 2.5 mL/well). After the cells were cultured for 24 hours, increasing concentrations of Hsp90 inhibitor were added to wells in triplicate from DMSO-containing stock solutions and mixed by gently by stirring. Final DMSO concentration in all wells was 0.25%. The treated cells were then cultured for 48 hours prior to lysate preparation. The culture media was removed from wells, and the wells were washed twice with DPBS containing 1 mM CaCl2 and 0.5 mM MgCl2. […] The protein concentration in the cell lysates was determined using the BCA protein assay kit used according to the manufacturer's recommendations. […] Protein concentrations were determined using a micro-titer plate reader (Model # Synergy HT; BioTek Inc., Winooski, Vt.).
Akt1 and ERK1 levels in the cell lysates were measured using kits from R&D Systems used according to the manufacturer's recommendations. […] Akt1 and ERK1 levels were determined using a micro-titer plate reader (Model # Synergy HT; BioTek Inc., Winooski, Vt.) (FIGS. 5 and 8).

[4] = test system: Hsp90 client proteins (EGFR and Akt1) in Mayo Clinic GBM PDX cell lines; assay: Cellular biomarker assays (EGFR, Akt1 ELISA) in Mayo Clinic GBM PDX cell lines; details: 48 hours; three cell lines

Row | SMILES | Effect on mitochondrial oxygen consumption rate [1] | Increase of Hsp70 levels [2] [fold] | Effect on Akt1 and ERK1 levels, MDA-MB-231 [3] | Effect on EGFR and Akt1 levels, GBM PDX cell lines [4]
1 | COc1c(C)cnc(CN(CCc2ccccn2)c2cc(Cl)nc(N)n2)c1C [Compound 1, 6-chloro-4-N-[(4-methoxy-3,5-dimethylpyridin-2yl)methyl]-4-N-[2-(pyridine-2-yl)ethyl]pyrimidine-2,4-amine] | dose-dependent decrease | 6 |  | 
2 | COc1c(C)cnc(CN(CC2(c3ccc(F)cc3)CCOCC2)c2cc(Cl)nc(N)n2)c1C [Compound A, 6-chloro-4-N-{[4-(4-fluorophenyl)oxan-4-yl]methyl}-4-N-[(4-methoxy-3,5-dimethylpyridin-2-yl)methyl]pyrimidine-2,4-diamine] |  |  | suppression of Hsp90 client proteins | suppression of Hsp90 client proteins
